Data reported in patent US20170334899A1, “AMINO-SUBSTITUTED ISOTHIAZOLES” (Bayer Pharma Aktiengesellschaft, priority 2014, published 2017).
Like-named read-outs stand apart in the source and are kept apart here.

How the values were obtained:
[1] = test system: HeLa; assay: Proliferation assay (crystal violet), HeLa; format: cell-based; conditions: Homo sapiens, HeLa, 96 h, HeLa cells; 4 days incubation; crystal violet staining; read-out: IC50 inhibition of proliferation, HeLa
How it was run: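 Tumor cells seeded at 1000–5000 cells/well in medium with 10% FCS; after 24 h, compounds added at 0.001–10 μM (0.5% DMSO) for 4 days. Cells fixed with glutaraldehyde, stained with crystal violet, dye dissolved in acetic acid and read at 595 nm. IC50 from 4-parameter fit, normalized to zero-point plate and untreated cells.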

[2] = test system: human cervical tumor cell line HeLa (ATCC CCL-2); assay: SAC-Formation - Paclitaxel-Induced Assay; format: cell-based; conditions: 24 h, HeLa cells, paclitaxel 0.05 μM, test range 0.005 μM-20 μM, read-out: IC50 [mol/l] SAC-Formation - Paclitaxel-Induced Assay
How it was run: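 HeLa cells incubated overnight at 37° C, then given paclitaxel (0.05 μM final) plus test compound (0.005–20 μM, 0.5% DMSO) together for 24 h at 37° C. Fixed cells stained for phospho-histone H3 Ser10 (mitotic cells) and Hoechst 33342 (cell count); imaging-derived mitotic index fitted by four-parameter Hill equation.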

| Structure (SMILES) | IC50 [1] | IC50 ([2]; Homo sapiens, HeLa) | IC50 [2] |
| --- | --- | --- | --- |
| Cc1nsc(Nc2ccc(C#N)cn2)c1C(=O)Nc1ccc(OCCCNC(=O)OC(C)(C)C)nc1 [Example 46, tert-Butyl [3-({5-[({5-[(5-cyanopyridin-2-yl)amino]-3-methyl-1,2-thiazol-4-yl}-carbonyl)amino]pyridin-2-yl}oxy)propyl]carbamate] | 10000 nM | 250 nM | – |
| Cc1nsc(Nc2cnc(C(F)(F)F)cn2)c1C(=O)Nc1ccc(OCCN2CCC(F)(F)CC2)nc1 [Example 407, N-{6-[2-(4,4-Difluoropiperidin-1-yl)ethoxy]pyridin-3-yl}-3-methyl-5-{[5-(trifluoromethyl)pyrazin-2-yl]amino}-1,2-thiazole-4-carboxamide] | 330 nM | 79 nM | – |
| Cc1nsc(Nc2cnc3ccccc3n2)c1C(=O)Nc1cccc(C(=O)N[C@H](C(=O)OC(C)(C)C)[C@@H](C)OC(C)(C)C)c1 [Example 57, tert-Butyl O-tert-butyl-N-[3-({[3-methyl-5-(quinoxalin-2-ylamino)-1,2-thiazol-4 yl]carbonyl}amino)-benzoyl]threoninate] | 10000 nM | 1200 nM | – |
| COCCOc1ccc(NC(=O)c2c(C)nsc2Nc2nc3c(C(F)(F)F)cccc3s2)cn1 [Example 3, N-[6-(2-Methoxyethoxy)pyridin-3-yl]-3-methyl-5-{[4-(trifluoromethyl)-1,3-benzo-thiazol-2-yl]amino}-1,2-thiazole-4-carboxamide] | 910 nM | 130 nM | – |
| Cc1nsc(Nc2cnc(C(F)(F)F)cn2)c1C(=O)Nc1ccc(O[C@@H]2CN(CCC(F)(F)F)C[C@@H]2F)nc1 [Example 409, N-(6-{[(3R,4S)-4-Fluoro-1-(3,3,3-trifluoropropyl)pyrrolidin-3-yl]oxy}pyridin-3-yl)-3-methyl-5-{[5-(trifluoromethyl)pyrazin-2-yl]amino}-1,2-thiazole-4-carboxamide] | 190 nM | 39 nM | – |
| Cc1nsc(Nc2cnc(C(F)(F)F)cn2)c1C(=O)Nc1ccc(OC[C@H]2CCCN(CCC(F)(F)F)C2)nc1 [Example 378, 3-methyl-5-{[5-(trifluoromethyl)pyrazin-2-yl]amino}-N-(6-{[(3S)-1-(3,3,3-trifluoropropyl)piperidin-3-yl]methoxy}pyridin-3-yl)-1,2-thiazole-4-carboxamide] | 290 nM | 29 nM | – |
| Cc1nsc(Nc2cnc3ccccc3n2)c1C(=O)Nc1cccc(C(=O)N[C@@H](CCC(N)=O)C(=O)OC(C)(C)C)c1 [Example 56, tert-butyl N^2-[3-({[3-methyl-5-(quinoxalin-2-ylamino)-1,2-thiazol-4-yl]carbonyl}amino)-benzoyl]glutaminate] | 9800 nM | 4300 nM | – |
| Cc1nsc(Nc2cnc(C(F)(F)F)cn2)c1C(=O)Nc1ccc(O[C@@H]2CN(CC(F)F)C[C@@H]2F)nc1 [Example 411, N-(6-{[(3R,4S)-1-(2,2-Difluoroethyl)-4-fluoropyrrolidin-3-yl]oxy}pyridin-3-yl)-3-methyl-5-{[5-(trifluoromethyl)pyrazin-2-yl]amino}-1,2-thiazole-4-carboxamide] | 170 nM | 39 nM | – |
| Cc1nsc(Nc2cnc(C(F)(F)F)cn2)c1C(=O)Nc1ccc(F)c(OC[C@H]2CCCN(CC(F)F)C2)c1 [Example 400, N-(3-{[(3S)-1-(2,2-difluoroethyl)piperidin-3-yl]methoxy}-4-fluorophenyl)-3-methyl-5-{[5-(trifluoromethyl)pyrazin-2-yl]amino}-1,2-thiazole-4-carboxamide] | 770 nM | 59 nM | – |
| Cc1nsc(Nc2cnc3ccccc3n2)c1C(=O)Nc1cccc(C(=O)N2CCN(C(=O)OC(C)(C)C)CC2)c1 [Example 55, tert-Butyl 4-[3-({[3-methyl-5-(quinoxalin-2-ylamino)-1,2-thiazol-4-yl]carbonyl}amino)-benzoyl]piperazine-1-carboxylate] | 10000 nM | 3100 nM | – |
| Cc1nsc(Nc2ccc(C#N)cn2)c1C(=O)Nc1ccc(Nc2ccc(F)c(F)c2)nc1 [Example 433, 5-[(5-Cyanopyridin-2-yl)amino]-N-{6-[(3,4-difluorophenyl)amino]pyridin-3-yl}-3-methyl-1,2-thiazole-4-carboxamide] | 5400 nM | 1300 nM | – |
| Cc1nsc(Nc2cc(C#N)ccn2)c1C(=O)Nc1ccc(OC2CCCNC2)nc1 (stereo not drawn) [Example 35, 5-[(4-Cyanopyridin-2-yl)amino]-3-methyl-N-[6-(piperidin-3-yloxy)pyridin-3-yl]-1,2-thiazole-4-carboxamide] | 10000 nM | 20000 nM | – |
| Cc1nsc(Nc2cnc(C(F)(F)F)cn2)c1C(=O)Nc1ccc(F)c(O[C@@H]2CCN(CC(F)(F)F)C2)c1 [Example 413, N-(4-Fluoro-3-{[(3R)-1-(2,2,2-trifluoroethyl)pyrrolidin-3-yl]oxy}phenyl)-3-methyl-5-{[5-(trifluoromethyl)pyrazin-2-yl]amino}-1,2-thiazole-4-carboxamide] | 270 nM | 42 nM | – |
| Cc1nsc(Nc2cnc(C(F)(F)F)cn2)c1C(=O)Nc1ccc(OC2CCNCC2)c(F)c1 [Example 431, N-[3-Fluoro-4-(piperidin-4-yloxy)phenyl]-3-methyl-5-{[5-(trifluoromethyl)pyrazin-2-yl]amino}-1,2-thiazole-4-carboxamide] | > 10000 nM | 10000 nM | – |
| Cc1nsc(Nc2cnc(C(F)(F)F)cn2)c1C(=O)Nc1ccc(F)c(OC[C@@H]2CCN(CC(F)F)C2)c1 [Example 403, N-(3-{[(3R)-1-(2,2-difluoroethyl)pyrrolidin-3-yl]methoxy}-4-fluorophenyl)-3-methyl-5-{[5-(trifluoromethyl)pyrazin-2-yl]amino}-1,2-thiazole-4-carboxamide] | 450 nM | 27 nM | 42 nM |
| Cc1nsc(Nc2cnc(C(F)(F)F)cn2)c1C(=O)Nc1ccc(F)c(O[C@@H]2CCN(CC(F)F)C2)c1 [Example 412, N-(3-{[(3R)-1-(2,2-Difluoroethyl)pyrrolidin-3-yl]oxy}-4-fluorophenyl)-3-methyl-5-{[5-(trifluoromethyl)pyrazin-2-yl]amino}-1,2-thiazole-4-carboxamide] | 260 nM | 11 nM | – |
| Cc1nsc(Nc2cnc(C(F)(F)F)cn2)c1C(=O)Nc1ccc(OCCN(C)C(=O)OC(C)(C)C)nc1 [Example 429, tert-Butyl methyl{2-[(5-{[(3-methyl-5-{[5-(trifluoromethyl)pyrazin-2-yl]amino}-1,2-thiazol-4-yl)carbonyl]amino}pyridin-2-yl)oxy]ethyl}carbannate] | 260 nM | 260 nM | – |
| Cc1nsc(Nc2cnc(C(F)(F)F)cn2)c1C(=O)Nc1ccc(F)c(O[C@H]2CCN(CC(F)(F)F)C2)c1 [Example 416, N-(4-Fluoro-3-{[(35)-1-(2,2,2-trifluoroethyl)pyrrolidin-3-yl]oxy}phenyl)-3-methyl-5-{[5-(trifluoromethyl)pyrazin-2-yl]amino}-1,2-thiazole-4-carboxamide] | 250 nM | 27 nM | – |
| Cc1nsc(Nc2cnccn2)c1C(=O)Nc1ccc(OCCCNC(=O)OC(C)(C)C)nc1 [Example 47, tert-Butyl (3-{[5-({[3-methyl-5-(pyrazin-2-ylamino)-1,2-thiazol-4-yl]carbonyl}-amino)pyridin-2-yl]oxy}propyl)carbamate] | 10000 nM | 13000 nM | – |
| Cc1nsc(Nc2cnc(C(F)(F)F)cn2)c1C(=O)Nc1ccc(F)c(O[C@@H]2CCN(CCC(F)(F)F)C2)c1 [Example 414, N-(4-Fluoro-3-{[(3R)-1-(3,3,3-trifluoropropyl)pyrrolidin-3-yl]oxy}phenyl)-3-methyl-5-{[5-(trifluoromethyl)pyrazin-2-yl]amino}-1,2-thiazole-4-carboxamide] | 290 nM | 44 nM | – |
| CCCN1C[C@H](F)[C@H](Oc2ccc(NC(=O)c3c(C)nsc3Nc3cnc(C(F)(F)F)cn3)cn2)C1 [Example 408, N-(6-{[(3R,4S)-4-Fluoro-1-propylpyrrolidin-3-yl]oxy}pyridin-3-yl)-3-methyl-5-{[5-(trifluoromethyl)pyrazin-2-yl]amino}-1,2-thiazole-4-carboxamide] | 260 nM | 47 nM | – |
| CCN1CCC(Oc2ccc(NC(=O)c3c(C)nsc3Nc3cnc(C(F)(F)F)cn3)cn2)C(F)(F)C1 (stereo not drawn) [Example 406, N-{6-[(1-Ethyl-3,3-difluoropiperidin-4-yl)oxy]pyridin-3-yl}-3-methyl-5-{[5-(trifluoromethyl)pyrazin-2-yl]amino}-1,2-thiazole-4-carboxamide] | 160 nM | 49 nM | – |
| Cc1nsc(Nc2cnc3ccccc3n2)c1C(=O)Nc1cccc(C(=O)N2CCOCC2)c1 [Example 52, 3-Methyl-N-[3-(morpholin-4-ylcarbonyl)phenyl]-5-(quinoxalin-2-ylamino)-1,2-thiazole-4-carboxamide] | 10000 nM | 780 nM | – |
| Cc1nsc(Nc2ccc(C#N)cn2)c1C(=O)Nc1ccc(OC2CCCN(CC(F)F)C2)nc1 (stereo not drawn) [Example 39, 5-[(5-Cyanopyridin-2-yl)amino]-N-(6-{[1-(2,2-difluoroethyl)piperidin-3-yl]oxy}-pyridin-3-yl)-3-methyl-1,2-thiazole-4-carboxamide] | 1100 nM | 24 nM | – |
| Cc1nsc(Nc2cncc(C(F)(F)F)n2)c1C(=O)Nc1ccc(OCCN(C)C(=O)OC(C)(C)C)nc1 [Example 430, tert-Butyl methyl{2-[(5-{[(3-methyl-5-{[6-(trifluoromethyl)pyrazin-2-yl]amino}-1,2-thiazol-4-yl)carbonyl]amino}pyridin-2-yl)oxy]ethyl}carbannate] | 920 nM | 45 nM | – |
